Where two headings read alike, the source gives them in different places. [invdT] = inverted (3'-3') thymidine
Tests used:
PDGF BB [1] = target: T1, PDGF BB (Homo sapiens, UniProt P01127); assay: Competition binding assay, PDGF-BB; parameters: purchased PeproTech, Rocky Hill, N.J; conditions: Table 2, mean affinity, competitive binding assay; read-out: Affinity
Method: Binding reactions were carried out in phosphate-buffered saline (Cellgro, Herndon, Va.) containing 0.2 mg/mL bovine serum albumin (NEB) and 0.02 mg/mL tRNA (Sigma, St. Louis, Mo.). The reactions were equilibrated for a period of 15-30 minutes at room temperature, then filtered through a sandwich of nitrocellulose (Protran membrane, Perkin-Elmer, Boston, Mass.) and nylon (Hybond membrane, Amersham, Piscataway, N.J.) membranes to separate target bound aptamer from free aptamer.
Next, a study was done to determine whether ARC126 cross reacted with PDGF-BB of species other than human. Competition binding assays were set up by dot blot analysis, as previously described, using human, rat, and mouse PDGF-BB (PeproTech, Rocky Hill, N.J.).
The competitive binding assay previously described was used to determine the in vitro binding affinity and selectivity of ARC594 for different PDGF isoforms. Different concentrations of unlabeled, competitor aptamer were titrated in separate reactions against a fixed (<0.1 nM) amount of ^32P-radiolabeled ARC594 in buffer containing a fixed amount (0.1 nM) of the aptamer's cognate target (PDGF-BB; PeproTech). UnPEGylated version of ARC594 was radiolabeled at the 5′ terminus by incubation with γ-^32P-ATP (ICN) and polynucleotide kinase (NEB). Binding reactions were carried out in phosphate-buffered saline (Cellgro) containing 0.2 mg/mL bovine serum albumin (NEB) and 0.02 mg/mL tRNA (Sigma). The reactions were equilibrated for a period of 15-30 minutes at room temperature, then filtered through a sandwich of nitrocellulose (Protran membrane, Perkin-Elmer) and nylon (Hybond membrane, Amersham) membranes to separate target bound aptamer from free aptamer. […] The data was expressed as the ratio of the counts per minute (CPM) of radioactivity due to ^32P-ARC594 bound to PDGF BB on the nitrocellulose membrane (CPMnitrocellulose or CPMnc) over the total CPM (CPMtotal=CPMnitrocellulose+CPMnylon).

PDGF BB [2] = target: T1, PDGF BB; assay: 3T3 cell proliferation assay (PDGF-BB induced); format: cell-based, rat; parameters: purchased PeproTech, Rocky Hill, N.J; conditions: for potency compared to ARC127: tyrosine kinase inhibitors
Method: 3T3 cells, a rat fibroblast cell line (ATCC, Manassas, Va.), were plated 3,000 cells/well in a 96 well plate one day prior to the start of the assay in 100 ul DMEM/10% FCS. The following day, cells were washed once with straight DMEM and then 75 ul DMEM/0.8% FCS was added to each well. […] Cells were incubated for 3 days. Following incubation 10 ul MTT (Promega, Madison, Wis.) was added to each well and incubated for an additional 1.5 hours. Media was then removed, 200 ul Isopropanol (2-propanol) was added to each well, cells were re-suspended thoroughly and absorbance at 570 nm was read on a 96 well plate reader.
(§1) 3T3 cells, which are derived from a rat fibroblast cell line (ATCC, Manassas, Va.), were used in a proliferation assay to test potency of modified ARC513 aptamers. 3T3 fibroblast cells have PDGF receptors on their cell-surface and respond to mitogen, e.g., PDGF stimulation by proliferation. The assay was performed as follows: 3T3 cells were plated 3,000 cells/well in a 96 well plate one day prior to the start of the assay in 100 ul DMEM/10% FCS. The following day, cells were washed once with straight DMEM and then 75 ul DMEM/0.8% FCS was added to each well. Then 25 ul of PDGF-BB (PeproTech, Rocky Hill, N.J.) at a 50 ng/ml final concentration was added to each well +/− aptamer condition to be tested. […] The functional PDGF aptamer dilutions usually consisted of 6 points in 2-fold serial dilutions.
(§2) Cells were incubated for 3 days. Following incubation 10 ul MTT (Promega, Madison, Wis.) was added to each well and incubated for an additional 1.5 hours. Media was removed, 200 μl Isopropanol (2-propanol) was added to each well, cells were re-suspended thoroughly and absorbance at 570 nm was read on a 96 well plate reader. The present example depicts the potency comparison of PDGF aptamer ARC: 513 to that of ARC 513 variants.
The 3T3 proliferation assay previously described was used to test potency of all PEG conjugated ARC513 variants described immediately above. The assay was performed as follows: 3T3 cells were plated 3,000 cells/well in a 96 well plate one day prior to the start of the assay in 100 ul DMEM/10% FCS. The following day, cells were washed once with straight DMEM and then 75 ul DMEM/0.8% FCS was added to each well. Then 25 ul of PDGF-BB (PeproTech, Rocky Hill, N.J.) at a 50 ng/ml final concentration was added to each well +/− aptamer condition to be tested. […] The functional PDGF aptamer dilutions usually consisted of 6 points in 2-fold serial dilutions.
as §2, with “ARC513” for “ARC: 513”, “PEGylated ARC513 aptamers.” for “ARC 513 variants.”
as §1, with “3T3” for “3T3 cells, which are derived from a rat fibroblast cell line (ATCC, Manassas, Va.), were used in a proliferation assay to test potency of modified ARC513 aptamers. 3T3”, “100 μl” for “100 ul”
as §2, with “[…]” for “μl”, “reader.” for “reader. The present example depicts the potency comparison of PDGF aptamer ARC: 513 to that of ARC 513 variants.”

[3] = Pharmacokinetics of ARC126 5′ PEG conjugates in mice; conditions: IV administration at 10 mg/kg in mice
Excerpt: The pharmacokinetic (PK) data shown in FIG. 12A was subjected to non-compartmental analysis (NCA) using the industry-standard software package WinNonLin™ v.4.0 (Pharsight Corp., Mountain View, Calif.). […] The pharmacokinetic (PK) data shown in FIG. 12B was subjected to noncompartmental analysis (NCA) using the industry-standard software package WinNonLin™ v.4.0 (Pharsight Corp., Mountain View, Calif.).
The pharmacokinetic (PK) data shown in FIG. 12B was subjected to noncompartmental analysis (NCA) using the industry-standard software package WinNonLin™ v.4.0 (Pharsight Corp., Mountain View, Calif.).

[4] = test system: LS174T colon cancer xenograft; conditions: Experiment 3
Excerpt: Experimental overview. Human HT-29 or LS174T colon cancer xenotransplants were established in athymic nude mice (Nu/Nu mice, Charles River Labs, Wilmington, Mass.) by injecting mice with 1×10^7 HT29 cells (ATCC, Manassas, Va.), or 2×10^6 LS174T cells (ATCC Manassas, Va.) sub-cutaneously and allowing the tumors to grow for 5 days. On day 5, two dimensional measurements of the established tumors were taken using a digital caliper. Once tumor measurements were taken, the mice were randomized into groups such that the average tumor size was the same in each group. […]
A third experiment (Experiment 3) was designed to test ARC308/irinotecan and GLEEVEC™/irinotecan dosing regimens in a colon cancer xenotransplant model using human colon carcinoma cell line LS174T (ATCC). […] ARC308 was dosed via intraperitoneal delivery at 50 mg/kg once daily, and GLEEVEC™ was dosed at 50 mg/kg once daily, Monday through Friday. ARC308 prevents PDGF-BB from binding the PDGF receptor; this molecule has a 30K PEG attached. […] The results are statistically significant (two tailed students T-test).
An efficacy analysis of three treatment groups in this study is shown in Table 10 in terms of log cell kill and log cell kill net. Log cell kill is the log(base10) of the number of tumor cells before treatment divided by the number of cells after treatment. […] A fourth experiment (Experiment 4) was designed to further test ARC308/irinotecan dosing regimens in a colon cancer xenotransplant model using human colon carcinoma cell line LS174T (ATCC). […]

[5] = Table 2, mean activity, 3T3 proliferation assay, read-out: Activity

T1 sequence (P01127 82-190 limits assumed): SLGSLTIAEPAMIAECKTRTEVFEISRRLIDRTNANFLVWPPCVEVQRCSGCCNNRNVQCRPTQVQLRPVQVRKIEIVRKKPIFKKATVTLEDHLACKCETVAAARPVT

5′-(SEQ ID NO: 36)-PEG-(SEQ ID NO: 37)-PEG-(SEQ ID NO: 38)-[3′]-3′ (chain 1 CAGGCTACG; chain 2 CGTAGAGCATCA; chain 3 TGATCCTG; piece 1: 2'-O-methyl at 9, other sugars and backbone not given here; piece 2: 2'-O-methyl at 5, 7, 12, other sugars and backbone not given here; piece 3: 2'-O-methyl at 8, other sugars and backbone not given here; further chemistry not fully specified) [ARC276]
Kd (PDGF BB [1]): 0.23 nM | IC50 (PDGF BB [2]; [5]): 18 nM

5′-(SEQ ID NO: 69)-PEG-(SEQ ID NO: 40)-PEG-(SEQ ID NO: 70)-[3′T]-3′ (chain 1 CCCAGGCTACG; chain 2 CGTAGAGCAUCA; chain 3 TGATCCTGGG; piece 1: 2'-O-methyl at 11, other sugars and backbone not given here; piece 2: 2'-O-methyl at 5, 7, 10, 11, 12, other sugars and backbone not given here; piece 3: 2'-O-methyl at 5, 8, 9, 10, 3' [invdT], other sugars and backbone not given here; pieces joined by PEG spacers) [ARC513]
IC50 (PDGF BB [2]; PDGF-BB 50 ng/ml, read-out: IC50 values routinely displayed): < 10 nM

5′-[20K PEG]-(SEQ ID NO:1)-HEG-(SEQ ID NO:2)-HEG-(SEQ ID NO:3)-3′-dT-3′ (chain 1 CAGGCUACG; chain 2 CGTAGAGCAUCA; chain 3 TGATCCUG; 5′ 20 kDa PEG; HEG spacers; 3′ dT cap; synthetic aptamer; modified_base (6)..(6) uridine is 2′-fluoro; modified_base (8)..(8) cytidine is 2′-fluoro; modified_base (9)..(9) gm; modified_base (5)..(5) gm; modified_base (7)..(7) gm; modified_base (10)..(10) uridine is 2′-fluoro; modified_base (11)..(11) cytidine is 2′-fluoro; modified_base (12)..(12) adenosine is 2′-O-Methyl; modified_base (5)..(6) cytidine is 2′-fluoro; modified_base (7)..(7) uridine is 2′-fluoro; modified_base (8)..(8) gm) [ARC240]
Cmax [3]: 34.3 µM | MRT [3]: 1.16 h | Vs [3]: 0.0003 L/kg | t1/2 [3]: 0.94 h

124 (ACCATGATCCTGTG; 3' inverted dT, further chemistry not given here) [compound 124]
Kd (PDGF BB [1]): 0.21 nM | IC50 (PDGF BB [2]; [5]): 3.45 nM | IC50 (PDGF BB [2]; Table 6, PDGF-BB 50 ng/ml, nM, read-out: Mean IC50): 20.7 nM

Cc1cc2ncc(-c3ccccc3)nc2cc1C [AG 1295, reference compound]
potency compared to ARC127 (PDGF BB [2]): much worse potencies

Cc1cc2ncc(-c3ccc(O)c(O)c3)nc2cc1C [AG 1433, reference compound]
unspecific toxic effects, concentration from which visible (PDGF BB [2]; signal lower than no treatment): ≥ 300 nM | potency compared to ARC127 (PDGF BB [2]): much worse potencies

CCc1c2c(nc3ccc(OC(=O)N4CCC(N5CCCCC5)CC4)cc13)-c1cc3c(c(=O)n1C2)COC(=O)[C@]3(O)CC [Irinotecan, irinotecan, reference compound]
Activity Assessment [4]: Active | Log cell kill ([4]; target size 1000 mm^3, ARC308 50 mg/kg, irinotecan 150 mg/kg, combination extrapolated): 1.95 | Log cell kill net ([4]; treatment duration 18 days, combination extrapolated): 0.28

SEQ ID NO: 42-PEG-SEQ ID NO: 43-PEG-SEQ ID NO: 44 (chain 1 CAGGCTACG; chain 2 CGTAGAGCATCA; chain 3 TGATCCTG; DNA, backbone not given here; PEG-6 spacers join the three pieces) [ARC299]
binding affinity and cell-based assay activity (in words) (PDGF BB [2]; in vitro biochemical binding and cell-based proliferation assays): significantly reduced activity/potency

Reference: patent US20090053138A1, “Stabilized Aptamers to Platelet Derived Growth Factor and their Use as Oncology Therapeutics” (priority 2002, published 2009)
